Measured values from patent US10226471B2, “Modified-release dosage forms of 5-HT2C agonists useful for weight management” (Arena Pharmaceuticals, Inc., priority 2010, dated 2019).
Like-named read-outs stand apart in the source and are kept apart here.

Columns and labels:
[1] = Dynamic moisture-sorption (DMS); type: physicochemical; conditions: for hygroscopicity by DMS: isotherm 25° C.; for DMS weight gain at 90% RH: out to and including the 90% RH hold at 25° C.
Experimental: Dynamic moisture-sorption (DMS) studies were conducted using a dynamic moisture-sorption analyzer, VTI Corporation, SGA-100, equipment #0228. Samples were prepared for DMS analysis by placing 5 mg to 20 mg of a sample in a tared sample holder. The sample was placed on the hang-down wire of the VTI balance. A drying step was run, typically at 40° C. and 0.5-1% RH for 1-2 h. The isotherm temperature is 25° C. Defined % RH holds typically ranged from 10% RH to 90% RH or 95% RH, with intervals of 10 to 20% RH. A % weight change smaller than 0.010% over a specified number of minutes (typically 10-20), or up to 2 h, whichever occurs first, is required before continuing to the next % RH hold. The water content of the sample equilibrated as described above was determined at each % RH hold.

[2] = Deliquescence relative humidity (DRH) by water activity meter; type: physicochemical; conditions: saturated aqueous solution with excess solid, 25° C.
[3] = Solubility of salts in water (UPLC or gravimetry); type: physicochemical
Experimental: Acquity ultra performance liquid chromatography (UPLC) from Waters was used for solubility and stoichiometry determination. […] UPLC was equipped with Acquity PDA detector. UPLC mobile phase solvent A was 0.1% TFA in DI-water, solvent B was 0.1% TFA in acetonitrile.
Column temperature was 40±5° C. Acquity UPLC® HSS T3 1.8 μm, 2.1×50 mm column was used.
A known amount of sample was dissolved in water and analyzed by UPLC.

[4] = Biopharmaceutics Classification System classification; type: physicochemical
From the text: An immediate-release, film-coated 10-mg tablet was developed for the phase 3 clinical trials and commercialization of Compound 1 (Example 5).

[5] = 26-day body weight study, oral gavage versus osmotic minipump; type: in vivo, male Sprague Dawley rats
Experimental: 30 male Sprague Dawley rats weighing 275-320 g were singly housed and maintained on a 12 h:12 h light-dark cycle (lights on at 23:00 h). Food and water were available ad libitum at all times except during the first day after pump implantation (see below). All rats were habituated to injection and handling procedures for one week prior to study onset.
For the purposes of dose calculation each rat was assumed to weigh 320 g at the start of the study. Rats receiving Compound 1 hydrochloride salt PO were given a fixed daily dose of 7.68 mg, whereas rats in the pump group received a total fixed daily dose of 4.84 mg (for calculations see Example 2.1).
Osmotic minipumps (Alzet® model 2ML4, Durect Corp, CA) were filled with either vehicle (0.9% saline, n=20), or Compound 1 hydrochloride salt solutions and submerged overnight in a 0.9% saline solution to reach equilibrium. […] All subjects were then implanted with the minipumps. Briefly, under isoflourane anaesthesia the nape of the neck was shaved, a mid-scapular incision was made and a subcutaneous pocket was created for the minipump. A minipump was then inserted into the pocket and the incision was closed using surgical staples. Rats were then returned to homecage for recovery. Rats in VEH and PO groups received pumps primed with vehicle; whereas rats in the PUMP group received Compound 1 hydrochloride salt-filled pumps. Because steady state levels of Compound 1 in vivo in the PUMP group were not predicted to be reached until at least 24 h post-implantation, food was removed from all rats for approximately one day after surgery. At 10:30 h the next day (Day 1) and for all subsequent days, food and body weight was measured for all subjects, and all subjects were administered either saline (for VEH and PUMP groups), or Compound 1 hydrochloride salt (PO group) via oral gavage. Food intake and body weight were measured for a total of 26 days.

[6] = chronic twice-daily oral administration, high fat diet, 4-week study; cited from earlier work
[7] = Appearance on exposure to light; type: physicochemical; conditions: solid removed from the slurry
[8] = water, thermodynamic from solid, by UPLC, read-out: solubility in water

SMILES: C[C@H]1CNCCc2ccc(Cl)cc21.O=C(O)/C=C/C(=O)O [Compound 1 fumarate salt]
- hygroscopicity by DMS ([1]; listed as Compound 1 Fumarate Salt, Form I, fumarate salt): FIG. 13: non-hygroscopic up to 90% RH
- hygroscopicity by DMS ([1]; listed as Compound 1 fumarate salt, Form I, fumarate salt): non-hygroscopic
- DRH (deliquescence relative humidity) [2]: 99 % RH
- solubility [3, 8]: 4800 µg/mL

SMILES: C[C@H]1CNCCc2ccc(Cl)cc21.C[C@H]1CNCCc2ccc(Cl)cc21.O.O=C(O)c1cc2ccccc2c(Cc2c(O)c(C(=O)O)cc3ccccc23)c1O [Compound 1 hemipamoate salt hydrate]
- hygroscopicity by DMS [1]: slightly hygroscopic
- DMS weight gain at 90% RH ([1]; listed as Compound 1 Hemipamoate Salt Hydrate, Form I, hydrate): FIG. 41: ~1.472% weight gain at about 90% RH
- DMS weight gain at 90% RH ([1]; listed as Compound 1 hemipamoate salt hydrate, Form I, hydrate): about 1.472%
- solubility in water ([3]; by UPLC): 24 µg/mL

SMILES: C[C@H]1CNCCc2ccc(Cl)cc21.C[C@H]1CNCCc2ccc(Cl)cc21.O=S(=O)(O)c1cccc2c(S(=O)(=O)O)cccc12 [Compound 1 heminapadisilate salt]
- solubility in water ([3]; by UPLC): 2370 µg/mL

SMILES: C[C@H]1CNCCc2ccc(Cl)cc21.C[C@H]1CNCCc2ccc(Cl)cc21.Cl.Cl.O
- Biopharmaceutics Classification System solubility class [4]: highly soluble
- solubility ([3]; pH range of 1 to 7): exceeds 400 mg/mL

SMILES: C[C@H]1CNCCc2ccc(Cl)cc21.Cl [Compound 1 hydrochloride salt]
- body weight gain, PUMP group compared to PO group ([5]; 26 days, p=0.0501, slopes differ p<0.01): lower weight gain in the PUMP group than in the PO group
- body weight gain over 26 days compared to saline ([5]; oral gavage once daily, 24 mg/kg/day (fixed 7.68 mg)): significantly decreased
- body weight gain over 26 days compared to saline ([5]; osmotic minipump, 15.1 mg/kg/day (fixed 4.84 mg)): significantly decreased
- food intake and body weight gain [6]: dose-dependent reductions in food intake and body weight gain

SMILES: C[C@H]1CNCCc2ccc(Cl)cc21.I [Compound 1 hydroiodide salt]
- hygroscopicity by DMS ([1]; Form I, hydroiodide salt): FIG. 7: non-hygroscopic
- hygroscopicity by DMS ([1]; hydroiodide salt): non-hygroscopic
- DRH (deliquescence relative humidity) [2]: 99 % RH
- colour change on exposure to light [7]: did yellow noticeably within hours when exposed to light
- solubility ([3]; water, thermodynamic from solid, 27° C., by gravimetry (confirmed by UPLC), read-out: solubility in water): 5500 µg/mL

SMILES: C[C@H]1CNCCc2ccc(Cl)cc21.O=C(O)/C=C\C(=O)O [Compound 1 maleate salt]
- hygroscopicity by DMS [1]: not hygroscopic
- DMS weight gain at 90% RH ([1]; maleate salt): 0.15%
- DRH (deliquescence relative humidity) [2]: 99 % RH
- solubility [3, 8]: 33000 µg/mL
